Laboratory results published in patent US7919504B2, “Thiadiazole modulators of PKB” (Amgen Inc., priority 2007, dated 2011).
Structures can show the parent of a compound that is named as a salt.

Biological target: T1, PKBα (Homo sapiens, UniProt P31749)
T1 construct: the full length PKBα and a kinase domain of PKBα with pleckstrin domain (amino acids 1-117) deleted
Test: PKB kinase assay (P33-labeled ATP, synthetic peptide substrate, filter plate capture)
Type: biochemical
Details: with respect to PKBα
Excerpt: The kinase assay for evaluating PKB activity comprises active PKB enzymes, a PKB specific substrate, and P^33-labeled ATP. Two form of PKBα enzymes were used, the full length PKBα and a kinase domain of PKBα with pleckstrin domain (amino acids 1-117) deleted. Both PKB enzymes were obtained from Upstate cell signaling solutions (Cat. #14-276 and 14-341). The PKB substrate used is a synthetic peptide (ARKRERTYSFGHHA (SEQ ID NO: 1)) as described in Obata et al., J. Biol. Chem. 275 (46), 36108-36115 (2000). The phosphorylated substrate was captured by a phosphocellulose membrane filter plate (MILLIPORE) and measured by a Wallac Microbeta liquid scintillation counter (Perkin Elmer). Table 1 provides the IC50 values obtained for each of the examples with respect to PKBα.

T1 sequence (P31749 118-480 limits assumed): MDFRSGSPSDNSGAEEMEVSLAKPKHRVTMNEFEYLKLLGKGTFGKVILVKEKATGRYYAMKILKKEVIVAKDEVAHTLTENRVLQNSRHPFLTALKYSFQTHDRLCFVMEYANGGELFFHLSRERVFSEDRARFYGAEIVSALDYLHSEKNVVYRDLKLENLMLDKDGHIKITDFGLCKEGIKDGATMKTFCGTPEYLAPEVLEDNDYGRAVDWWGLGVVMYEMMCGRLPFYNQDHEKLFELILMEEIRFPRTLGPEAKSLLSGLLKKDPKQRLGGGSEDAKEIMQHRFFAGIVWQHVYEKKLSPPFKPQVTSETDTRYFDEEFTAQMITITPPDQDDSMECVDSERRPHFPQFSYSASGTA

SMILES | IC50 [nM]
c1ccc2[nH]c(CCNc3nnc(-c4ccc5cnccc5c4)s3)nc2c1 [Example 19, N-(2-(1H-Benzo[d]imidazol-2-yl)ethyl)-5-(isoquinolin-6-yl)-1,3,4-thiadiazol-2-amine] | 1000 to 10000
CC1(C)C2CCC1(C)C(Nc1nnc(-c3ccc4cnccc4c3)s1)C2 (stereo not shown) [Example 20, 5-(Isoquinolin-6-yl)-N-(1,7,7-trimethylbicyclo[2.2.1]heptan-2-yl)-1,3,4-thiadiazol-2-amine] | 1000 to 10000
O[C@H]1CCCC[C@H]1CNc1nnc(-c2ccc3cnccc3c2)s1 [Example 21, (1S,2S)-2-((5-(Isoquinolin-6-yl)-1,3,4-thiadiazol-2-ylamino)methyl)cyclohexanol] | 50 to 1000
N[C@H](CNc1nnc(-c2ccc3ncncc3c2)s1)Cc1ccc(C(F)(F)F)cc1 [Example 25, N-((S)-2-Amino-3-(4-(trifluoromethyl)phenyl)propyl)-5-(quinazolin-6-yl)-1,3,4-thiadiazol-2-amine] | 50 to 1000
FC(F)(F)c1ccc([C@@H]2CCN[C@@H]2CNc2nnc(-c3ccc4cnccc4c3)s2)cc1 [Example 27, 5-(Isoquinolin-6-yl)-N-(((2S,3S)-3-(4-(trifluoromethyl)phenyl)pyrrolidin-2-yl)methyl)-1,3,4-thiadiazol-2-amine] | 1000 to 10000
N[C@H](C(=O)Nc1nnc(-c2ccc3cnccc3c2)s1)[C@@H](CO)c1ccc(C(F)(F)F)cc1 [Example 31, (2S,3S)-2-Amino-4-hydroxy-N-(5-(isoquinolin-6-yl)-1,3,4-thiadiazol-2-yl)-3-(4-(trifluoromethyl)phenyl)butanamide hydrochloride] | 1000 to 10000
N[C@H](COc1nnc(-c2ccc3cnccc3c2)s1)Cc1ccc(C(F)(F)F)cc1 [Example 32, (2S)-1-(5-(isoquinolin-6-yl)-1,3,4-thiadiazol-2-yloxy)-3-(4-(trifluoromethyl)phenyl)propan-2-amine] | 50 to 1000
N[C@H](CNc1nnc(-c2ccc3c(c2)CC(=O)N3)s1)Cc1ccc(Cl)cc1 [Example 34, 5-(5-((S)-2-Amino-3-(4-chlorophenyl)propylamino)-1,3,4-thiadiazol-2-yl)indolin-2-one] | < 50
N[C@H](CCc1nnc(-c2ccc3cnccc3c2)s1)Cc1ccc(C(F)(F)F)cc1 [Example 35, (2R)-4-(5-(Isoquinolin-6-yl)-1,3,4-thiadiazol-2-yl)-1-(4-(trifluoromethyl)phenyl)butan-2-amine] | < 50
N[C@H](CNc1nnc(-c2ccc3cnsc3c2)s1)Cc1ccc(C(F)(F)F)cc1 [Example 42, N-((S)-2-Amino-3-(4-(trifluoromethyl)phenyl)propyl)-5-(benzo[d]isothiazol-6-yl)-1,3,4-thiadiazol-2-amine] | < 50
N[C@H](CNc1nnc(-c2ccc3cnc(F)cc3c2)s1)Cc1ccc(C(F)(F)F)cc1 [Example 43, N-((S)-2-Amino-3-(4-(trifluoromethyl)phenyl)propyl)-5-(3-fluoroisoquinolin-6-yl)-1,3,4-thiadiazol-2-amine trifluoroacetate] | < 50
N[C@H](CNc1nnc(-c2ccc3cnc(F)cc3c2)s1)Cc1ccc(C(F)(F)F)nc1 [Example 44, N-((S)-2-Amino-3-(6-(trifluoromethyl)pyridin-3-yl)propyl)-5-(3-fluoroisoquinolin-6-yl)-1,3,4-thiadiazol-2-amine trifluoroacetate] | < 50
N[C@H](CCc1nnc(-c2ccc3cnc(F)cc3c2)s1)Cc1ccc(C(F)(F)F)nc1 [Example 45, (2R)-4-(5-(3-Fluoroisoquinolin-6-yl)-1,3,4-thiadiazol-2-yl)-1-(6-(trifluoromethyl)pyridin-3-yl)butan-2-amine] | < 50
N[C@H](CCc1nnc(-c2ccc3[nH]ncc3c2)s1)Cc1ccc(C(F)(F)F)nc1 [Example 46, (2R)-4-(5-(1H-Indazol-5-yl)-1,3,4-thiadiazol-2-yl)-1-(6-(trifluoromethyl)pyridin-3-yl)butan-2-amine] | < 50
N[C@H](CCc1nnc(-c2ccc3c(c2)CC(=O)N3)s1)Cc1ccc(C(F)(F)F)nc1 [Example 47, 5-(5-((R)-3-Amino-4-(6-(trifluoromethyl)pyridin-3-yl)butyl)-1,3,4-thiadiazol-2-yl)indolin-2-one trifluoroacetate] | 50 to 1000
N[C@H](CCc1nnc(-c2ccc3cnc(F)cc3c2)s1)Cc1ccc(C(F)(F)F)cc1 [Example 48, (2R)-4-(5-(3-Fluoroisoquinolin-6-yl)-1,3,4-thiadiazol-2-yl)-1-(4-(trifluoromethyl)phenyl)butan-2-amine] | < 50
N[C@H](CCc1nnc(-c2ccc3[nH]c(=O)oc3c2)s1)Cc1ccc(C(F)(F)F)cc1 [Example 49, 6-(5-((R)-3-Amino-4-(4-(trifluoromethyl)phenyl)butyl)-1,3,4-thiadiazol-2-yl)benzo[d]oxazol-2(3H)-one] | < 50
N[C@H](CNc1nnc(-c2ccc3[nH]c(=O)oc3c2)s1)Cc1ccc(Cl)cc1 [Example 50, 6-(5-((S)-2-Amino-3-(4-chlorophenyl)propylamino)-1,3,4-thiadiazol-2-yl)benzo[d]oxazol-2(3H)-one] | < 50
N[C@H](CNc1nnc(-c2ccc3c(c2)CC(=O)N3)s1)[C@@H](O)c1ccc(C(F)(F)F)cc1 [Example 51, 5-(5-((2R,3S)-2-Amino-3-hydroxy-3-(4-(trifluoromethyl)phenyl)propylamino)-1,3,4-thiadiazol-2-yl)indolin-2-one trifluoroacetate] | < 50
